The text below walks through data of patent US20200131156A1, “ARYLSULFONYLPYROLECARBOXAMIDE DERIVATIVES AS Kv3 POTASSIUM CHANNEL ACTIVATORS” (H. Lundbeck A/S, priority 2018, published 2020).

For the experiment, the system named is fast-spiking interneurons (FSI). Briefly: Hippocampal brain slice voltage clamp recording, outward K+ current from FSI. The format is cell-based, rat. Particulars: 10 μM; for Outward current in presence of compound relative to baseline: step to 0 mV, baseline 100%. The procedure: Male Sprague Dawley rats (18˜24 days old) from Shanghai Laboratory Animal Center (Shanghai, China) were used for brain slice experiments. They were housed in groups of five in controlled conditions (temperature of 23±3° C., humidity of 40-70%, and 12:12 light-dark cycle with lights on at 5:00 am) and free access to food and water. All procedures were conducted in agreement with the guideline of Institutional Animal Care and Use Committee at ChemPartner. Ethical approval was obtained by the The Danish Animal Experimentation Inspectorate (journal no. 2014 15 0201 00339).
Animals were decapitated by a guillotine and their brains quickly removed and placed in ice-cold modified artificial cerebral spinal fluid (ACSF) containing (in mM): 110 sucrose, 60 NaCl, 3 KCl, 5 glucose, 28 NaHCO3, 1.25 NaH2PO4, 0.5 CaCl2 and 7 MgCl2, aerated with 95% O2/5% CO2. The brains were block-trimmed and glued onto the stage of a vibratome (VT1200S, Leica Microsystems Inc., Bannockburn, Ill., USA). Parasagittal hippocampal slices (300 μm) were cut and incubated in the regular carbogenated ACSF containing (in mM): 119 NaCl, 2.5 KCl, 1.2 Na2HPO4, 25 NaHCO3, 2.5 CaCl2, 1.3 MgCl2, 10 glucose at 35° C. for the first 60 min and then transferred to room temperature prior to recordings.
In the hippocampal CA1 pyramidal cell layer, fast-spiking interneurons (FSI) or pyramidal (PYR) cells were visualized using differential interference contrast-infrared (DIC-IR)-assisted microscopy and whole-cell patch clamp recordings performed using an Axon Multiclamp 700B amplifier (Molecular Devices, Union City, Calif.). FSI were selected based on non-pyramidal shape and multipolar dendrites. […]
Whole cell patch clamp recordings in voltage clamp mode were used to study the outward K^+ current from FSI or PYR cells. […] Outward K^+ current was recorded in the presence of 1 μM TTX and 10 μM DNQX in the ACSF to inhibit voltage-gated Na^+ channels and AMPA channels, respectively. […] For all recordings, the access resistance was monitored throughout the experiments. […]

Structures are written as SMILES.

As to `Cc1ccc(S(=O)(=O)n2ccc(C(=O)NCc3ncco3)c2)cc1` [Compound 86, 1-(4-methylbenzene-1-sulfonyl)-N-[(1,3-oxazol-2-yl)methyl]-1H-pyrrole-3-carboxamide], the “Outward current in presence of compound relative to baseline” value worked out at 121±2%.

With `Cc1cnc(CNC(=O)c2ccn(S(=O)(=O)c3ccc(F)cc3C)c2)cn1` [Compound 90, 1-(4-fluoro-2-methylbenzene-1-sulfonyl)-N-[(5-methylpyrazin-2-yl)methyl]-1H-pyrrole-3-carboxamide], the “Reversibility of compound-mediated increase in outward K+ current (Wash)” value was “largely reversible” and the “Outward current in presence of compound relative to baseline” value is recorded as 144±4%.
